Experiments:
[1] = test system: blackgrass; experiment: Test B pre/postemergence blackgrass; type: in vivo, Alopecurus myosuroides
Procedure, shortened: (§1)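 Herbicidal effect was estimated by eye on a ten-point control scale after plants spent twelve to sixteen days in a greenhouse following soil or foliar treatment. Foliar sprays targeted plants at one to four leaves; all doses were formulated in a non-phytotoxic solvent with surfactant.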

[2] = test system: surinam grass; experiment: Test B pre/postemergence surinam grass; type: in vivo, Brachiaria decumbens
Procedure, shortened: as §1

[3] = test system: bamyardgrass; experiment: Test B flood test barnyardgrass; type: in vivo, Echinochloa crus-galli
Procedure, shortened: (§2)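 Each value is a visual injury score relative to controls, with 10 meaning complete control and 0 no effect. Evaluation took place twelve to sixteen days after the 2-leaf-stage plants were treated and kept in the greenhouse.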

[4] = test system: corn; experiment: Test B pre/postemergence corn; type: in vivo, Zea mays
Procedure, shortened: as §1

[5] = test system: bedstraw; experiment: Test B pre/postemergence bedstraw; type: in vivo, Galium aparine
Procedure, shortened: as §1

[6] = test system: rice; experiment: Test B flood test rice; type: in vivo, Oryza sativa
Procedure, shortened: as §2

[7] = test system: rape; experiment: Test B pre/postemergence rape; type: in vivo, Brassica napus
Procedure, shortened: as §1

[8] = test system: velvetleaf; experiment: Test B pre/postemergence velvetleaf; type: in vivo, Abutilon theophrasti; settings: for Plant response rating, Velvetleaf: Rate 250 g/ha
Procedure, shortened: as §1

[9] = test system: purple nutsedge; experiment: Test B pre/postemergence purple nutsedge; type: in vivo, Cyperus rotundus
Procedure, shortened: as §1

[10] = test system: cocklebur; experiment: Test B pre/postemergence cocklebur; type: in vivo, Xanthium strumarium
Procedure, shortened: as §1

[11] = test system: morningglory; experiment: Test B pre/postemergence morningglory; type: in vivo, Ipomoea hederacea
Procedure, shortened: as §1

[12] = test system: pigweed; experiment: Test B pre/postemergence pigweed; type: in vivo, Amaranthus retroflexus
Procedure, shortened: as §1

[13] = test system: duck salad; experiment: Test B flood test duck salad; type: in vivo, Heteranthera limosa
Procedure, shortened: as §2

[14] = test system: giant foxtail; experiment: Test B pre/postemergence giant foxtail; type: in vivo, Setaria faberii
Procedure, shortened: as §1

[15] = test system: sugar beet; experiment: Test B pre/postemergence sugar beet; type: in vivo, Beta vulgaris; settings: for Plant response rating, Sugarbeets: Rate 250 g/ha
Procedure, shortened: as §1

[16] = Postemergence, Rate 125 g/ha, scale of 0 to 10 where 0 is no effect and 10 is complete control
[17] = Postemergence, Rate 250 g/ha, scale 0 to 10, 0 no effect, 10 complete control
[18] = Preemergence, Rate 62 g/ha, scale 0 to 10 (0 no effect, 10 complete control)
[19] = Preemergence, Rate 125 g/ha, scale 0 to 10 (0 no effect, 10 complete control)
[20] = Preemergence, Rate 250 g/ha, scale of 0 to 10 where 0 is no effect and 10 is complete control
[21] = Preemergence, Rate 500 g/ha, scale 0 to 10 (0 no effect, 10 complete control)
[22] = Rate 62 g/ha, Postemergence, scale of 0 to 10 where 0 is no effect and 10 is complete control
[23] = Rate 500 g/ha, Postemergence, scale 0 to 10, 0 no effect, 10 complete control
[24] = Postemergence, Rate 62 g/ha, scale 0 to 10, 0 is no effect, 10 is complete control
[25] = Rate 125 g/ha, Postemergence, scale 0 to 10, 0 no effect, 10 complete control
[26] = Rate 250 g/ha, headed Pre-emergence (flood test species), scale 0 to 10 (0 no effect, 10 complete control)
[27] = Rate 500 g/ha, headed Pre-emergence (flood test species), scale 0 to 10 (0 no effect, 10 complete control)
[28] = Rate 500 g/ha, listed under Postemergence (flood test species), scale 0 to 10, 0 no effect, 10 complete control
[29] = Rate 1000 g/ha, Pre-emergence (as headed), scale 0 to 10
[30] = flood test, listed under Postemergence, Rate 250 g/ha, scale 0 to 10, 0 no effect, 10 complete control
[31] = Postemergence (flood test species), Rate 125 g/ha, scale of 0 to 10 where 0 is no effect and 10 is complete control
[32] = Rate 62 g/ha, Postemergence section, flood test species, scale of 0 to 10 where 0 is no effect and 10 is complete control
[33] = Rate 2000 g/ha, Pre-emergence (as headed), scale 0 to 10
[34] = Preemergence, Rate 125 g/ha, 0 is no effect, 10 is complete control
[35] = Preemergence, scale of 0 to 10 where 0 is no effect and 10 is complete control
[36] = Postemergence, scale 0 to 10, 0 is no effect, 10 is complete control

C=CCn1c(=O)on(C(=O)N(c2ccc(Cl)cc2)C(C)C)c1=O [Compound 105]
Blackgrass plant response rating [1, 16]: 6 | Blackgrass plant response rating [1, 17]: 7 | Blackgrass plant response rating [1, 18]: 5 | Plant response rating, Blackgrass [1, 19]: 7 | Plant response rating, Blackgrass [1, 20]: 8 | Blackgrass plant response rating [1, 21]: 10 | Blackgrass plant response rating [1, 22]: 2 | Blackgrass plant response rating [1, 23]: 8 | B. signalgrass plant response rating [2, 24]: 0 | B. signalgrass plant response rating [2, 17]: 3 | B. signalgrass plant response rating [2, 18]: 0 | Plant response rating, B. signalgrass [2, 19]: 1 | Plant response rating, B. signalgrass [2, 20]: 5 | B. signalgrass plant response rating [2, 21]: 10 | B. signalgrass plant response rating [2, 25]: 2 | B. signalgrass plant response rating ([2]; Rate 500 g/ha, Postemergence, scale of 0 to 10 where 0 is no effect and 10 is complete control): 3 | Barnyardgrass plant response rating [3, 24]: 0 | Barnyardgrass plant response rating ([3]; Rate 125 g/ha, Postemergence section (flood test species), scale 0 to 10, 0 no effect, 10 complete control): 0 | Barnyardgrass plant response rating [3, 26]: 0 | Plant response rating, Barnyardgrass [3, 27]: 0 | Barnyardgrass plant response rating [3, 28]: 0 | Barnyardgrass plant response rating [3, 29]: 0 | Barnyardgrass plant response rating ([3]; Rate 2000 g/ha, Pre-emergence (as headed), scale 0 to 10, 0 no effect, 10 complete control): 0 | Barnyardgrass plant response rating [3, 30]: 0 | Corn plant response rating [4, 16]: 0 | Corn plant response rating [4, 17]: 0 | Corn plant response rating [4, 18]: 0 | Plant response rating, Corn [4, 19]: 0 | Plant response rating, Corn [4, 20]: 2 | Corn plant response rating [4, 21]: 3 | Corn plant response rating [4, 22]: 0 | Corn plant response rating [4, 23]: 2 | Bedstraw plant response rating [5, 24]: 0 | Bedstraw plant response rating [5, 17]: 2 | Bedstraw plant response rating [5, 18]: 0 | Plant response rating, Bedstraw [5, 19]: 0 | Plant response rating, Bedstraw [5, 20]: 0 | Bedstraw plant response rating [5, 21]: 5 | Bedstraw plant response rating [5, 25]: 0 | Bedstraw plant response rating [5, 23]: 3 | Rice plant response rating [6, 31]: 0 | Rice plant response rating [6, 32]: 0 | Plant response rating, Rice ([6]; Rate 250 g/ha, Postemergence (flood test), scale 0 to 10, 0 is no effect, 10 is complete control): 0 | Rice plant response rating [6, 26]: 0 | Plant response rating, Rice [6, 27]: 0 | Rice plant response rating [6, 28]: 0 | Rice plant response rating [6, 29]: 0 | Rice plant response rating [6, 33]: 0 | Rape plant response rating [7, 16]: 0 | Rape plant response rating [7, 17]: 0 | Rape plant response rating [7, 18]: 0 | Plant response rating, Rape [7, 19]: 1 | Plant response rating, Rape [7, 20]: 4 | Rape plant response rating [7, 21]: 6 | Rape plant response rating [7, 22]: 0 | Rape plant response rating [7, 23]: 2 | Velvetleaf plant response rating [8, 16]: 0 | Velvetleaf plant response rating [8, 18]: 0 | Velvetleaf plant response rating (0 to 10 scale) [8, 34]: 4 | Plant response rating, Velvetleaf [8, 35]: 5 | Velvetleaf plant response rating [8, 21]: 6 | Velvetleaf plant response rating [8, 22]: 0 | Plant response rating, Velvetleaf [8, 36]: 3 | Velvetleaf plant response rating [8, 23]: 4 | Nutsedge plant response rating [9, 16]: 0 | Nutsedge plant response rating [9, 17]: 0 | Nutsedge plant response rating [9, 18]: 0 | Plant response rating, Nutsedge [9, 19]: 0 | Plant response rating, Nutsedge [9, 20]: 0 | Nutsedge plant response rating [9, 21]: 0 | Nutsedge plant response rating [9, 22]: 0 | Nutsedge plant response rating [9, 23]: 2 | Cocklebur plant response rating [10, 16]: 0 | Cocklebur plant response rating [10, 17]: 1 | Cocklebur plant response rating [10, 18]: 0 | Plant response rating, Cocklebur [10, 19]: 0 | Plant response rating, Cocklebur [10, 20]: 0 | Cocklebur plant response rating [10, 21]: 0 | Cocklebur plant response rating [10, 22]: 0 | Cocklebur plant response rating [10, 23]: 4 | Morningglory plant response rating [11, 16]: 2 | Morningglory plant response rating [11, 17]: 3 | Morningglory plant response rating [11, 18]: 0 | Plant response rating, Morningglory [11, 19]: 0 | Plant response rating, Morningglory [11, 20]: 0 | Morningglory plant response rating [11, 21]: 0 | Morningglory plant response rating [11, 23]: 4 | Redroot pigweed plant response rating [12, 16]: 0 | Redroot pigweed plant response rating [12, 18]: 0 | Plant response rating, Redroot pigweed [12, 19]: 3 | Plant response rating, Redroot pigweed [12, 20]: 9 | Redroot pigweed plant response rating [12, 21]: 10 | Redroot pigweed plant response rating [12, 22]: 0 | Plant response rating, Redroot pigweed ([12]; Rate 250 g/ha, Postemergence, scale 0 to 10, 0 is no effect, 10 is complete control): 0 | Redroot pigweed plant response rating [12, 23]: 3 | Ducksalad plant response rating [13, 31]: 0 | Ducksalad plant response rating [13, 32]: 0 | Ducksalad plant response rating [13, 26]: 0 | Plant response rating, Ducksalad [13, 27]: 0 | Ducksalad plant response rating [13, 28]: 0 | Ducksalad plant response rating [13, 29]: 0 | Ducksalad plant response rating [13, 33]: 0 | Ducksalad plant response rating [13, 30]: 0 | Giant foxtail plant response rating [14, 16]: 3 | Giant foxtail plant response rating [14, 17]: 7 | Giant foxtail plant response rating [14, 18]: 10 | Plant response rating, Giant foxtail [14, 19]: 10 | Plant response rating, Giant foxtail [14, 20]: 10 | Giant foxtail plant response rating [14, 21]: 10 | Giant foxtail plant response rating [14, 22]: 2 | Giant foxtail plant response rating [14, 23]: 8 | Sugarbeets plant response rating [15, 16]: 0 | Sugarbeets plant response rating [15, 18]: 0 | Sugarbeets plant response rating (0 to 10 scale) [15, 34]: 1 | Plant response rating, Sugarbeets [15, 35]: 4 | Sugarbeets plant response rating [15, 21]: 9 | Sugarbeets plant response rating [15, 22]: 0 | Plant response rating, Sugarbeets [15, 36]: 0 | Sugarbeets plant response rating [15, 23]: 0

— patent US6737383B1, “Herbicidal oxadiazolidines” (priority 1999, dated 2004)
